Source: US7700615B2, “Cell migration inhibiting compositions and methods and compositions for treating cancer” (Avolix Pharmaceuticals, Inc., priority 2002, dated 2010)

Assays:
[1] = test system: HUVEC cells; experiment: Angiogenesis inhibition: cell migration of HUVEC cells; type: cell-based, Human; settings: compared with untreated control sample
Method: (§1) The guided cell sedimentation apparatus may be used to deposit cells onto a substrate at predetermined locations. A manifold and a substrate as described above may be stored in autoclave bags and steam autoclaved for about 1 hour to sterilize the manifold. The manifold may then be stored at about 4° C. until testing is to be performed. FIG. 3 illustrates a top schematic view of substrate 14. Prior to deposition, the surface of substrate 14 onto which the cells will be deposited is treated according to the experiment to be performed. For example, about 20 μl of a surface coating may be added to each well and incubated for about 1 hour at about 37° C. Just prior to deposition of the cells, Teflon-defined wells 24 on the substrate are hydrated in a culture media appropriate for the cells under study. Approximately 50 μl of culture media is deposited onto each well. […] A small aliquot of the culture media (i.e., about 1 μl) is aspirated from each channel of the manifold to eliminate air bubbles within the channels.
The cells are harvested from a culture according to any method known in the art. The cell concentration is adjusted to about 2000 cells/μl. An appropriate cell concentration may vary depending on the cell type. The cells are deposited into each channel in a volume of about 1 μl. The number of cells deposited onto the substrate varies depending upon the physical characteristics of the cells under study. For example, about 500 to about 3000 cells are deposited in each location. The manifold, substrate, and cells should stand undisturbed for a period of time of, for example, about 30 minutes. […]
(§2) Cell migration may be monitored over time by monitoring the location of individual cells over time or measuring the radius of a circle surrounding the cells over time. […] The peripheral cells are easily detected because the cells can be deposited as a confluent monolayer within a predetermined area. […] Alternatively, designations such as numbers can be assigned to individual cells such that cells may be counted or characterized within the deposited sample of cells. […]

[2] = test system: normal fibroblasts; experiment: Cell migration of normal fibroblasts; type: cell-based; settings: compared with control sample of untreated cells
Method: as §1
The cells are harvested from a culture according to any method known in the art. The cell concentration is adjusted to about 2000 cells/μl. An appropriate cell concentration may vary depending on the cell type. The cells are deposited into each channel in a volume of about 1 μl. The number of cells deposited onto the substrate varies depending upon the physical characteristics of the cells under study. For example, about 500 to about 3000 cells are deposited in each location. The manifold, substrate, and cells should stand undisturbed for a period of time of, for example, about 30 minutes. During the time, the cells will sediment. Sedimentation is generally defined as a process in which gravity causes heavier objects in a suspension to settle to the lowest part of the system. As used herein, sedimentation refers to the process in which gravity causes cells to settle through a standing column of culture media that fills the channels in the manifold. Forces greater than gravity should be avoided to prevent damage of the cells.
The manifold, substrate, and cells are transferred to a controlled temperature and atmosphere tissue culture incubator for several hours to overnight to allow the cells to attach to the surface of the substrate. Appropriate conditions for the incubator are about 37° C., about […] (CO2), and humidified air. The cells sediment onto a defined location at the bottom of the channel. Therefore, when the manifold is removed from the substrate, the cells are deposited as discs 26 of cells at predetermined locations on the substrate, as shown in FIG. 3. Such sedimentation of cells may further include any other steps of the methods as described by Berens. After the cells are attached and the manifold has been removed, the cells in each well may be re-fed with an appropriate solution.
as §2

[3] = test system: MDA-MB-231 breast cancer cells; experiment: scid mouse human breast tumor model (tumor growth, survival); type: in vivo, scid mice
Method: Measuring the synergy of a combination of a chemical and a chemotherapeutic agent may also be performed by evaluating the growth inhibitory effects of a chemotherapeutic agent and a cell migration inhibitor in a severe combined immunodeficient (scid) mouse human tumor model. Such measurements include screening mice for immunoglobulin (Ig) production by an enzyme-linked immunosorbent assay (ELISA). A number of mice are injected with cancer cells in saline using a subcutaneous (SC) injection. Mice with established tumors are selected and stratified according to groups including: a control group, a group treated with a chemotherapeutic agent alone, a group treated with a cell migration inhibitor alone, and one or more groups treated with various combinations of the chemotherapeutic agent and the cell migration inhibitor. The groups designated to be treated with at least the chemotherapeutic agent are injected with the chemotherapeutic agent or the chemotherapeutic agent diluent by intraperitoneal (IP, within abdominal cavity) injection on the first day of treatment. […] Tumor growth may be measured about twice a week throughout the experiment, and the tumor volume may be estimated using the following formula: [(width)^2×length]/2. […]
The scid mouse human breast tumor model was used to evaluated cancer cells of the cell line MDA-MB-231 treated with various compositions. […]

[4] = test system: glioma cancer cell line SF 767; experiment: Cell migration rate dose response, glioma cancer cells; type: cell-based; settings: concentration of 2.00 μM
Method: (§3) The guided cell sedimentation apparatus may be used to deposit cells onto a substrate at predetermined locations. A manifold and a substrate as described above may be stored in autoclave bags and steam autoclaved for about 1 hour to sterilize the manifold. The manifold may then be stored at about 4° C. until testing is to be performed. FIG. 3 illustrates a top schematic view of substrate 14. Prior to deposition, the surface of substrate 14 onto which the cells will be deposited is treated according to the experiment to be performed. For example, about 20 μl of a surface coating may be added to each well and incubated for about 1 hour at about 37° C. Just prior to deposition of the cells, Teflon-defined wells 24 on the substrate are hydrated in a culture media appropriate for the cells under study. Approximately 50 μl of culture media is deposited onto each well. […]
as §2

[5] = test system: pancreatic cancer cell line MiaPaCa-2; experiment: Cell migration inhibition of pancreatic cancer cells; type: cell-based; settings: compared with untreated control sample
Method: as §3, §2

[6] = test system: breast cancer cell line MDA-MB-231; experiment: Cell migration rate dose response, breast cancer cells; type: cell-based, human; settings: concentration of 2.00 μM
Method: as §3, §2

[7] = test system: melanoma cancer cell line WM1791C; experiment: Cell migration rate dose response, melanoma cancer cells; type: cell-based; settings: concentration of 0.025 μM
Method: as §3, §2

[8] = test system: lung cancer cell line MV522; experiment: Cell migration inhibition of lung cancer cells; type: cell-based; settings: compared with untreated control sample
Method: as §3, §2

In the case of `C1=C(c2ccc3c(c2)OCCO3)NN=C(Nc2ccccc2)S1` [compound 302, [5-(2,3-dihydro-benzo[1,4]dioxin-6-yl)-4H-[1,3,4]thiadiazin-2-yl]-phenyl-amine], the cell migration rate [1] is reported as “markedly reduced migration” and the “cell migration rate of normal fibroblasts” value [2] is reported as “essentially no effect”.

In the case of `CC(=O)O[C@H]1C(=O)[C@@]2(C)[C@H]([C@H](OC(=O)c3ccccc3)[C@]3(O)C[C@H](OC(=O)[C@H](O)[C@@H](NC(=O)c4ccccc4)c4ccccc4)C(C)=C1C3(C)C)[C@]1(OC(C)=O)CO[C@@H]1C[C@@H]2O` [Taxol, paclitaxel, reference compound], the “% Survival after 100 days” value ([3]; Taxol alone (10 mg/kg, IP qod×5)) is reported as 0%.

`CCCC1CCC(C2CCC(C(=O)O)CC2)CC1` (stereo not drawn) [4′-propyl-bicyclohexyl-4-carboxylic acid] was tested, and the cell migration rate [4] was “about 50 μm/day” and the “cell migration rate of normal fibroblasts” value [2] was “essentially no effect”.

`COc1ccc(C2C(C(=O)c3ccc(Cl)cc3)N3c4ccccc4C=CC3C2(C#N)C#N)cc1OC` (stereo not drawn) [NS20494, 1-(4-chloro-benzoyl)-2-(3,4-dimethoxy-phenyl)-1,2-dihydro-3aH-pyrrolo[1,2-a]quinoline-3,3-dicarbonitrile] was tested, and the cell migration rate [5] was “markedly reduced migration”, the cell migration rate [1] was “markedly reduced migration” and the “cell migration rate of normal fibroblasts” value [2] was “essentially no effect”.

`N#Cc1c(NC(=O)c2cccc(I)c2)sc2c1CCCC2` [compound 301, N-(3-cyano-4,5,6,7-tetrahydro-benzo[b]thiophen-2-yl)-3-iodo-benzamide] was tested, and the cell migration rate [1] was “markedly reduced migration” and the “cell migration rate of normal fibroblasts” value [2] was “essentially no effect”.

With `Cc1ccc(C(=O)O)cc1[N+](=O)[O-]` [4-methyl-3-nitro-benzoic acid] the cell migration rate [6] was “about 75 μm/day”, the “% Survival after 100 days” value ([3]; 4-methyl-3-nitro-benzoic acid alone (30 mg/kg, IP qod×5)) was 0% and the cell migration rate [7] was “less than 50 μM/day”. For the same compound, the cell migration rate [8] was “markedly reduced migration” and the “cell migration rate of normal fibroblasts” value [2] was “essentially no effect”.
